Source: patent US8022235B2, “Compositions of phospholipid ether boronic acids and esters and methods for their synthesis and use” (Cellectar, Inc., priority 2007, dated 2011)

Assays:
Mammary SCC and ACC = assay: Imaging and tissue distribution, tumor model; therapeutic responses at imaging doses; format: in vivo, Apc^Min/+mouse; conditions: single intravenous injection, ^125I-labeled, imaging dose 15-20 μCi/20 g mouse
Source text: (§1) During the course of mouse tumor uptake and retention studies with “imaging” doses (15-20 μCi/20 g mouse) of ^125I-labeled NM404, several apparent therapeutic responses have been observed (unpublished results). […] Some of these animals also lost all hair above larger mammary tumors at around 8 days after injection. Moreover, these mice also get intestinal tumors and usually suffer from intestinal bleeding resulting in severe anemia, which renders their feet white. […] Another compelling example of tumor regression is illustrated in FIG. 13. Two litter mates each received SCC1 and SCC6 xenografts in their left and right flanks, respectively. One mouse received a single injection of ^125I-NM404 (20 μCi). […] These coincidental findings were reconfirmed in two separate age-matched groups each involving more than 6 mice.

animal tumor models = assay: Imaging and biodistribution across animal tumor models (general statements)
Source text: See, for example, U.S. patent application Ser. Nos. 10/906,687, 11/177,740, 11/316,620 and 11/382,645. Due to deficiencies in metabolic phospholipase enzymes in the membranes of malignant tumor cells, the prevailing hypothesis for this specificity is that phospholipid ether analogs become trapped exclusively in tumor cell membranes because of their inability to become metabolized and eliminated by the cancerous cell. Thus, the differential clearance rates of phospholipid ethers from normal cells versus neoplastic tumor cells are responsible for this specificity.
The reason for the retention of PLE and analogs in cancer cells remains unknown. Without being held to any particular theory, however, the prevailing hypothesis, is that radioiodinated PLE and APC analogs become trapped in tumor cell membranes because of their inability to be metabolized and eliminated. On the other hand, such lipid molecules are metabolized and cleared by normal tissues, including the liver.
These PLE analogs are specifically designed to incorporate aromatic radioiodine in order to render the molecule stable towards in vivo deiodination.

SCC1 and 6 = assay: Imaging and tissue distribution, tumor model; tumor regression; format: in vivo
Source text: as §1

[1] = tested on: A549 human non-small cell lung cancer xenografts; assay: Single-dose 125I-NM404 treatment, tumor volume, A549 xenografts; format: in vivo, SCID mice
Source text: FIG. 3 illustrates antitumor effect of single-dose treatment with ^125I-125-NM404 at doses of 50 (∘), 150 (□), 250 (⋄) and 500 (∘) μCi in SCID mice bearing A549 human non-small cell lung cancer xenografts. In FIG. 3, control animals show rapidly growing tumors over the 10-week assessment period. […] Tumor volumes are stable and some tumors appear “collapsed” (the tumor surface has collapsed). Additionally, hair above the tumors fell off confirming substantial accumulation of radioactivity in these tumors.
FIG. 4 is an image showing one of the tumor-bearing animals treated with 250 μCi of ^125I-NM404 at 4 weeks following injection. The hair above the tumor has fallen off, apparently due to the significant accumulation of radioactivity in the tumor. […] The measurement method for determining outer tumor dimensions may have underestimated tumor volume response following dosing with ^125I-NM404;
(§2) The inventors have previously shown that ^125I-labeled PLE analogs such as NM404 are effective in targeting tumor therapies to tumor cells following single injection and fractionated dosing. For assessment of efficacy of ^125I-NM404 treatment, assessments of tumor volume were made until 10 weeks post-injection or until no animal in the control group was alive, whatever came first. Summarizing the results, control animals show rapidly growing tumors over the 10-week assessment period. See, FIGS. 2 and 3. […] Tumor volumes are stable and the same tumors appear “collapsed” (the tumor surface has caved in). Additionally, the hair above the tumors fell off confirming substantial accumulation of radioactivity in these tumors, FIG. 4. […] (See also, for example, U.S. patent application Ser. No. 11/671,403 hereby incorporated in its entirety for all purposes.)

[2] = tested on: PC3 human prostate cancer xenografts; assay: Single-dose 125I-NM404 treatment, tumor volume, PC3 xenografts; format: in vivo, SCID mice; conditions: single dose 250 μCi and 500 μCi, n=6 per group
Description: Tumor volumes were calculated using formula (width)^2×(length)/2 and expressed as mean±SEM, n=6 for each group. ⋄ Cold NM404, control;
as §2

Adrenal RL-251 = assay: Imaging and tissue distribution, tumor model; format: in vivo, SCID Mouse; conditions: days 1 through 14

Compound: C[N+](C)(C)CCOP(=O)([O-])OCCCCCCCCCCCCCCCCCCc1ccc([125I])cc1 [^125I-NM404]
- tumor growth (Mammary SCC and ACC): tumor growth remains static
- time over which tumors could be imaged (animal tumor models; mammary and prostate tumors in mice): > 60 days
- duration of tumor retention (animal tumor models; mice, post-injection): 20 to 60 days
- tumor regression (SCC1 and 6; by day 41 after injection (FIG. 12)): significantly reduced
- health of treated animal (SCC1 and 6; single injection 20 μCi): quite healthy 80 days after injection
- tumor regression (SCC1 and 6; single injection 20 μCi, SCC1 and SCC6 flank xenografts, untreated litter mate died 21 days later): regressed significantly
- tumor volume vs control ([1]; 50 μCi dose group): did not show any difference when compared with control animals
- tumor volume vs control ([1]; 150, 250 and 500 μCi dose groups): substantial and prolonged treatment effect
- effect on the tumor (appearance) ([1]; 250 μCi, 4 weeks following injection (FIG. 4)): causes central necrosis
- dose dependence of effect on tumor volume ([1]; single dose 50-500 μCi): dose-linear effect
- tumor volume vs control ([1]; single dose 50 and 150 μCi (FIG. 3 legend)): did not show any difference when compared to control animals
- tumor volume vs control ([1]; single dose 250 and 500 μCi (FIG. 3 legend)): substantial and prolonged treatment effect
- change in tumor volume / primary tumor growth [2]: significant effects in inhibiting the progression of primary tumor growth
- tissue distribution, blood, spleen and kidney (Adrenal RL-251): distribution in blood, spleen and kidney reduced
- tissue distribution, tumor (Adrenal RL-251): accumulation in the tumor increased
